Common to all, as to assay: TGFα-shedding assay-based GPCR screening with chimeric Gα subunit proteins
Holding throughout (assay type): cell-based

Assay [1] concerns the target T1, 348 GPCRs (Homo sapiens, UniProt Q96P68).
T1 construct: expressed in transfected cells; host or cells: HEK293A

Assay [2] deals with T2, 348 GPCRs (Homo sapiens, UniProt P47775).
T2 construct: expressed in transfected cells; host or cells: HEK293A
T2 sequence (P47775 1-334): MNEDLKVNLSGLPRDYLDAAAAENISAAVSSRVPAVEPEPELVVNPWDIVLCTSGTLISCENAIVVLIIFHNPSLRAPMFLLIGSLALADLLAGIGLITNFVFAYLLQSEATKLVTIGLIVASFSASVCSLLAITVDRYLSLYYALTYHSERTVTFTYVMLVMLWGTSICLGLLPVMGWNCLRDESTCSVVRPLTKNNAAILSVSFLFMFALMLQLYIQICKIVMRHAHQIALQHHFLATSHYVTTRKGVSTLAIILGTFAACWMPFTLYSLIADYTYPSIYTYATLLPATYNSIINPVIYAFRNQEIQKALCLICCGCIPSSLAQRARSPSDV

In assay [3] the target is T3, 348 GPCRs (Homo sapiens, UniProt P51686).
T3 construct: expressed in transfected cells; host or cells: HEK293A
T3 sequence (P51686 1-369): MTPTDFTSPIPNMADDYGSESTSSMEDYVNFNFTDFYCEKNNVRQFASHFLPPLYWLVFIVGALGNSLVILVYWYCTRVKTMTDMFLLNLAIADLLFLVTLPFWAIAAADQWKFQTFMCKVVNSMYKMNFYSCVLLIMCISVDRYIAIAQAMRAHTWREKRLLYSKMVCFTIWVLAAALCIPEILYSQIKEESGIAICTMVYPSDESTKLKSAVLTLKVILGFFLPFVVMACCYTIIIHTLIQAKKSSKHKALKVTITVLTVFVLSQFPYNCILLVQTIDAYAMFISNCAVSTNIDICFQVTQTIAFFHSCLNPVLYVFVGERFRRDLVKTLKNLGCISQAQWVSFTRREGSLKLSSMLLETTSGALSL
The note with it: 10µM, Favipiravir 100μM.

For assay [4], the target named is 348 GPCRs (Homo sapiens, UniProt Q8IYL9). The note with it: GPCR GPR65 (G protein-coupled receptor 65).
Assay [5] deals with T4, 348 GPCRs (Homo sapiens, UniProt Q96P69).
T4 construct: expressed in transfected cells; host or cells: HEK293A
The note with it: 10µM, Favipiravir 100μM.

Assay [6] concerns the target T5, 348 GPCRs (Homo sapiens, UniProt Q15761).
T5 construct: expressed in transfected cells; host or cells: HEK293A
T5 sequence (Q15761 1-445): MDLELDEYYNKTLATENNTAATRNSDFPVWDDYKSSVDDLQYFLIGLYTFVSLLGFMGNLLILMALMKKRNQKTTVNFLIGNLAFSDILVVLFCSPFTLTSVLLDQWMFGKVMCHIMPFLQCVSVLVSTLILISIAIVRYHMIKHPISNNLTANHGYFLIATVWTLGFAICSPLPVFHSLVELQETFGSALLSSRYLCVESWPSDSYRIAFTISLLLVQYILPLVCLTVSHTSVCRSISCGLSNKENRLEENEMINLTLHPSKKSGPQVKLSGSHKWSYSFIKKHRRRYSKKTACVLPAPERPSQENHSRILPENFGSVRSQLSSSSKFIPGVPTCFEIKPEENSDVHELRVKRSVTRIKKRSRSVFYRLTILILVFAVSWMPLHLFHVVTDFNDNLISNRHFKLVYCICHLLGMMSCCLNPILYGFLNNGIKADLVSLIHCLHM
The note with it: 10µM, Favipiravir 100μM.

For assay [7], the target named is T6, 348 GPCRs (Homo sapiens, UniProt Q9NZH0).
T6 construct: expressed in transfected cells; host or cells: HEK293A
The note with it: 10µM, Favipiravir 100μM.

Assay [8] deals with T7, 348 GPCRs (Homo sapiens, UniProt P49683).
T7 construct: expressed in transfected cells; host or cells: HEK293A
T7 sequence (P49683 1-370): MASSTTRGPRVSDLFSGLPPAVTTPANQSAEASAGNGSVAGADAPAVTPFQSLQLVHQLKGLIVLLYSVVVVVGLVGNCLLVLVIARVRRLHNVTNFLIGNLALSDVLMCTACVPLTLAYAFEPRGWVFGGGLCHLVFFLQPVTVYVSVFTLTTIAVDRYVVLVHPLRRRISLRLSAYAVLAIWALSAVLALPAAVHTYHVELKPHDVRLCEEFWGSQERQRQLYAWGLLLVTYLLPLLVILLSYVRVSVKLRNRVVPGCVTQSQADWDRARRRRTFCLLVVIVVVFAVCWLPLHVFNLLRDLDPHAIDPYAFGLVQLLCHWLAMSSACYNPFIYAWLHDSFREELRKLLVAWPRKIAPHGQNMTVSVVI
The note with it: 10µM, Favipiravir 100μM.

The target in assay [9] is 348 GPCRs (Homo sapiens, UniProt Q9UPC5). As to conditions: 10µM, Favipiravir 100μM.
[10] abbreviates: GPCR OXGR1 (oxoglutarate (alpha-ketoglutarate) receptor 1), read-out: % GPCR activation compared to TPA.
Where [11] appears, read: GPCR GPR12 (G protein-coupled receptor 12), read-out: % GPCR activation compared to TPA.
The mark [12] stands for this setting: CCR9 (chemokine (C-C motif) receptor 9), read-out: % GPCR activation compared to TPA.
Where [13] appears, read: GPR78 (G Protein-Coupled Receptor 78), read-out: % GPCR activation compared to TPA.
[14] abbreviates: NPY5R (neuropeptide Y Receptor Y5), read-out: % GPCR activation compared to TPA.
Where [15] appears, read: GPRC5B (G protein-coupled receptor class C group 5 member B), read-out: % GPCR activation compared to TPA.
The mark [16] stands for this setting: PRLHR (prolactin releasing hormone receptor), read-out: % GPCR activation compared to TPA.
Where [17] appears, read: GPR34 (G Protein-Coupled Receptor 34), read-out: % GPCR activation compared to TPA.
Where [18] appears, read: read-out: % GPCR activation compared to TPA, GPCR OXGR1 (oxoglutarate (alpha-ketoglutarate) receptor 1).
Where [19] appears, read: read-out: % GPCR activation compared to TPA, GPCR GPR12 (G protein-coupled receptor 12).
The mark [20] stands for this setting: read-out: % GPCR activation compared to TPA, CCR9 (chemokine (C-C motif) receptor 9).
Where [21] appears, read: read-out: % GPCR activation compared to TPA, GPR78 (G Protein-Coupled Receptor 78).
The mark [22] stands for this setting: read-out: % GPCR activation compared to TPA, NPY5R (neuropeptide Y Receptor Y5).
Setting [23] is: read-out: % GPCR activation compared to TPA, GPRC5B (G protein-coupled receptor class C group 5 member B).
Where [24] appears, read: read-out: % GPCR activation compared to TPA, PRLHR (prolactin releasing hormone receptor).
Where [25] appears, read: read-out: % GPCR activation compared to TPA, GPR34 (G Protein-Coupled Receptor 34).

Like-named read-outs stand apart in the source and are kept apart here.

T6 sequence (Q9NZH0 29-403): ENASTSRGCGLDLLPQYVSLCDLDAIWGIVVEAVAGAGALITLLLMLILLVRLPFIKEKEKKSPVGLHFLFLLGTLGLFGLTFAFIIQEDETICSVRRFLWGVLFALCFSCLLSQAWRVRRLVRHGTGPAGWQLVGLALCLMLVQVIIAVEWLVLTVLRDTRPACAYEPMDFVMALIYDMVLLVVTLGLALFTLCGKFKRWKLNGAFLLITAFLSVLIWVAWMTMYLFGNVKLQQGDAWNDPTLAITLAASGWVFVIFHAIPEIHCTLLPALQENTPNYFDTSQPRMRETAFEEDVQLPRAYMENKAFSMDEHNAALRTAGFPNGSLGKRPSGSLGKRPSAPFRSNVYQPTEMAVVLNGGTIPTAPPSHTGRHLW
T4 sequence (Q96P69 whole entry): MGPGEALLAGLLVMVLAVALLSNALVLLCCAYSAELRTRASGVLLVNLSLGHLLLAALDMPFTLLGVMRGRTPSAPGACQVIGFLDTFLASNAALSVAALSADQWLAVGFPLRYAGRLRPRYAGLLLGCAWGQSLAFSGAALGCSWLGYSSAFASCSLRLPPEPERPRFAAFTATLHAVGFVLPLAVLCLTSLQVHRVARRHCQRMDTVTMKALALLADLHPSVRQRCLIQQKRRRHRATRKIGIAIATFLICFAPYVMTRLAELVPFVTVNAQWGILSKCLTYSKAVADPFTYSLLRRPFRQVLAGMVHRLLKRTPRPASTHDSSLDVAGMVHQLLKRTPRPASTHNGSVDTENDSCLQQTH
Chain of 348 GPCRs (Homo sapiens, UniProt Q9UPC5) (Q9UPC5 whole entry): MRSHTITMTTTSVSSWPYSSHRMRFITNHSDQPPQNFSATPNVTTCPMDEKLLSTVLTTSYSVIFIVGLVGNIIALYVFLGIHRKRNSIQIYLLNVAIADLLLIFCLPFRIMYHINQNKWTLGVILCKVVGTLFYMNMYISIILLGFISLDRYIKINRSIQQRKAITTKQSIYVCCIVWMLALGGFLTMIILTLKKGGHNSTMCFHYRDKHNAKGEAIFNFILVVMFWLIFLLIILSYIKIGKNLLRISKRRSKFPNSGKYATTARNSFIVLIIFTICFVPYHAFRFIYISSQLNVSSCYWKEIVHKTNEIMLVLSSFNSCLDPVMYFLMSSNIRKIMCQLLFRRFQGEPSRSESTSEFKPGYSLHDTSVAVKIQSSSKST
Chain of 348 GPCRs (Homo sapiens, UniProt Q8IYL9) (Q8IYL9 whole entry): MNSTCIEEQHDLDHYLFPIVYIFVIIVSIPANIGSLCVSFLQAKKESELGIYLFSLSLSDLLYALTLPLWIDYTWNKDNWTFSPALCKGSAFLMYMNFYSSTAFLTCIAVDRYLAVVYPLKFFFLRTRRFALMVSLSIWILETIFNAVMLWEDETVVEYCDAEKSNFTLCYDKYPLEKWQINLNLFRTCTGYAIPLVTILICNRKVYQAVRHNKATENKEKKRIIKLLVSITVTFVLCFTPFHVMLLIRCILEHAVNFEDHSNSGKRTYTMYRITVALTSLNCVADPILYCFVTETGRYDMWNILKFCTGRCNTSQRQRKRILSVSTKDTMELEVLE

With `CC(C)C(=O)OC[C@H]1O[C@@H](n2ccc(NO)nc2=O)[C@H](O)[C@@H]1O` [molnupiravir], the activation at 10 µM was 0.239% at 348 GPCRs [1] (setting [10]), 0.357% at 348 GPCRs [2] (setting [11]), -1.34% at 348 GPCRs [3] (setting [12]) and -1.95% at 348 GPCRs [9] (setting [17]). Further, the “% GPCR activation compared to TPA” value at 348 GPCRs [4] (10µM) is recorded as -8.376%. For the same compound, the activation at 100 µM at 348 GPCRs [5] (setting [13]) is -0.581%; at 348 GPCRs [6] (setting [14]), -5.02%; at 348 GPCRs [7] (setting [15]), -3.43%; at 348 GPCRs [8] (setting [16]) it was -3.13%.

With `CC(C)OC(=O)[C@H](C)N[P@](=O)(OC[C@H]1O[C@@H](n2ccc(=O)[nH]c2=O)[C@](C)(F)[C@@H]1O)Oc1ccccc1` [sofosbuvir], the activation at 10 µM on 348 GPCRs [1] (setting [18]) was 1.77%; on 348 GPCRs [2] (setting [19]), -0.471%; on 348 GPCRs [3] (setting [20]), -0.977%; on 348 GPCRs [9] (setting [25]) it was -0.895%. The “% GPCR activation compared to TPA” value on 348 GPCRs [4] (10µM) is reported as -10.455%. The activation at 100 µM was 2.01% on 348 GPCRs [5] (setting [21]), -4.22% at 348 GPCRs [6] (setting [22]), -12.5% at 348 GPCRs [7] (setting [23]) and -8.24% on 348 GPCRs [8] (setting [24]).

Turning to `N#C[C@@]1(c2ccc3c(N)ncnn23)O[C@H](CO)[C@@H](O)[C@H]1O` [GS441524], the activation at 10 µM is -0.462% on 348 GPCRs [1] (setting [10]), 4.27% on 348 GPCRs [2] (setting [11]), 2.4% on 348 GPCRs [3] (setting [12]) and -1.27% on 348 GPCRs [9] (setting [17]). For the same compound, the “% GPCR activation compared to TPA” value on 348 GPCRs [4] (10µM) is given as -3.0793%. The activation at 100 µM was 0.894% at 348 GPCRs [5] (setting [13]), 0.212% on 348 GPCRs [6] (setting [14]), 4.38% at 348 GPCRs [7] (setting [15]) and -1.86% at 348 GPCRs [8] (setting [16]).

On to `NC(=O)c1nc(F)cnc1O` [favipiravir, 6-fluoro-3-hydroxy-2-pyrazinecarboxamide], for which the activation at 100 µM is -1.07% on 348 GPCRs [1] (GPCR OXGR1 (oxoglutarate (alpha-ketoglutarate) receptor 1), 100μM, read-out: % GPCR activation compared to TPA); 3.7% on 348 GPCRs [2] (GPCR GPR12 (G protein-coupled receptor 12), 100μM, read-out: % GPCR activation compared to TPA); -0.429% on 348 GPCRs [5] (setting [13]); -1.82% at 348 GPCRs [6] (setting [14]); 7.41% at 348 GPCRs [7] (setting [15]); 1.46% at 348 GPCRs [8] (setting [16]). In addition, the figures for the activation at 10 µM at 348 GPCRs [3] (setting [12]) and at 348 GPCRs [9] (setting [17]) were 2.47% and -0.575%, respectively. Also, the “% GPCR activation compared to TPA” value at 348 GPCRs [4] (100μM) turned out to be 1.278%.

Regarding `CCC(CC)COC(=O)[C@H](C)N[P@](=O)(OC[C@H]1O[C@@](C#N)(c2ccc3c(N)ncnn23)[C@H](O)[C@@H]1O)Oc1ccccc1` [remdesivir], the activation at 10 µM on 348 GPCRs [1] (setting [18]) is 0.444%; on 348 GPCRs [2] (setting [19]), 5.35%; on 348 GPCRs [3] (setting [20]) it was -0.902%; at 348 GPCRs [9] (setting [25]) it was -1.23%. Besides, the “% GPCR activation compared to TPA” value at 348 GPCRs [4] (10µM) was -1.387%. The activation at 100 µM on 348 GPCRs [5] (setting [21]) stood at 2.44%; at 348 GPCRs [6] (setting [22]) it was 0.934%; on 348 GPCRs [7] (setting [23]), 6.88%; at 348 GPCRs [8] (setting [24]), 0.33%.

For the origin of these results see PMC10175918 (Communications Biology, 2023).
